Laboratory results taken from paper PMC11507974, “Phytochemical Analysis, Antioxidant Activity and Bioassay-Guided Isolation of Acetylcholinesterase and Butyrylcholinesterase Inhibitors from Horsfieldia polyspherula Bark (Myristicaceae)” (Tropical Life Sciences Research, 2024).
Read-outs that look alike come from different tables or passages of the source.

Legend:
DPPH radical scavenging = settings: 15 min incubation, 517 nm
Procedure: The free radical scavenging activity of the samples was determined using 1,1-diphenyl-2 picrylhydrazyl (DPPH) assay as described with minor modification ([Chua et al. 2013]). The DPPH solution was prepared by dissolving 3.0 mg of DPPH in 150 mL of methanol to afford 20 μg/mL. A 750 μL of the sample’s solution at different concentrations, ranging from 1.25 mg/mL to 40 mg/mL was added to 1,500 μL of DPPH solution. The absorbance was recorded at 517 nm using Shimadzu UV-2600 UV-Vis spectrophotometer after 15 min of incubation at room temperature. Ascorbic acid was used as the positive control, while methanol was used as negative control for scanning the background. The ability to scavenge the DPPH was calculated using Equation 2:
(2) DPPH radical scavenging activity (%)=Abs control-Abs sample/Abs control×100
where Abs control is the absorbance of DPPH while Abs sample is the absorbance of the sample. […] All experiments were performed in triplicates.

[1] = target: T1, AChE from Electrophorus electricus (electric eel) Type V-S (Electrophorus electricus, UniProt O42275); assay: biochemical; assay type: biochemical; settings: for SI (selectivity index for AChE): IC50 (BuChE)/ IC50 (AChE)
T1 construct: purified AChE from Electrophorus electricus (electric eel) Type V-S (C2888-1K); purchased Sigma Aldrich, Germany C2888-1K
T1 sequence (O42275 24-633): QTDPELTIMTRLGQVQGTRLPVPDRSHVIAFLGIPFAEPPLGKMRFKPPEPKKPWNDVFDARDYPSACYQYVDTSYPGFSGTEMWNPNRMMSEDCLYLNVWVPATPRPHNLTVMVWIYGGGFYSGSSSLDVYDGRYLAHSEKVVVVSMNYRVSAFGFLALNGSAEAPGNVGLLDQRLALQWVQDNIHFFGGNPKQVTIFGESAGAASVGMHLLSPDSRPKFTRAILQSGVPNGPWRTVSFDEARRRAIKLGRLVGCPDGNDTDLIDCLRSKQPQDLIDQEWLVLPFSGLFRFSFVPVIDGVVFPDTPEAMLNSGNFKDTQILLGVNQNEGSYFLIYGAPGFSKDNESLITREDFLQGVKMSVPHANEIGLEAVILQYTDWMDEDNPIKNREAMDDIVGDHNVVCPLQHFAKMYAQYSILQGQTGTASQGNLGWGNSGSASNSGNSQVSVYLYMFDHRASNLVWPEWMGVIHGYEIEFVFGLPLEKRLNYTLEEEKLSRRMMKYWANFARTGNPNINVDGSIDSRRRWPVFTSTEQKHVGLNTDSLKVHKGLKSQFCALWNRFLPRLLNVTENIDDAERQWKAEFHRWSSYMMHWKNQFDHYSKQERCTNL
Procedure: (§1) To assess the inhibitory activity of H. polyspherula extract, fractions and isolated compounds towards AChE and BuChE, Ellman’s spectrophotometric method was followed ([Ellman et al. 1961]) using purified AChE from Electrophorus electricus (electric eel) Type V-S (C2888-1K), and BuChE from equine serum lyophilized powder (C7512-1.2KU) all from Sigma Aldrich, Germany. The reaction took place in a final volume of 200 μL of a (140 μL to 160 μL) 100 mM phosphate-buffered solution at pH 7.5 for AChE and 8.0 for BuChE, containing (20 μL) 0.2 U of AChE or 0.1 U of BuChE. Inhibition curves were made by pre-incubating this mixture with six concentrations of each sample (20 μL) for 15 min. A sample with no compound (blank) was present to determine the 100% of enzyme activity. After the pre-incubation period, ten microlitre (10 μL) of 10 mM of 5,5′-dithiobis-2-nitrobenzoic acid (DTNB, D8130 Sigma Aldrich, Germany) was added prior to 14 mM (10 μL) acetylthiocholine iodide (A5751) or 14 Mm butyrylthiocholine iodide (B3253-5G) source from Sigma Aldrich, Germany) were added, DTNB produces yellow anion 5-thio-2-nitrobenzoic acid along with the enzymatic degradation of ATChI or BuTChI. Changes in absorbance were detected at 412 nm in a 96 well spectrophotometric microplate reader (Bostch Biotek) after 30 min. […] Data are analysed using excel, graph pad prism 9.0.0 and expressed as means ± SD of at least three different experiments in triplicate.
(§2) (3) % inhibition=[…]/Abs (blank)×100

BuChE from equine serum = target: T2, BuChE from equine serum (Equus caballus, UniProt P81908); assay: biochemical; assay type: biochemical; settings: for SI (selectivity index for BuChE): IC50 (AChE)/ IC50 (BuChE)
T2 construct: BuChE from equine serum lyophilized powder (C7512-1.2KU); purchased Sigma Aldrich, Germany C7512-1.2KU; host or cells: equine serum
T2 sequence (P81908 whole entry): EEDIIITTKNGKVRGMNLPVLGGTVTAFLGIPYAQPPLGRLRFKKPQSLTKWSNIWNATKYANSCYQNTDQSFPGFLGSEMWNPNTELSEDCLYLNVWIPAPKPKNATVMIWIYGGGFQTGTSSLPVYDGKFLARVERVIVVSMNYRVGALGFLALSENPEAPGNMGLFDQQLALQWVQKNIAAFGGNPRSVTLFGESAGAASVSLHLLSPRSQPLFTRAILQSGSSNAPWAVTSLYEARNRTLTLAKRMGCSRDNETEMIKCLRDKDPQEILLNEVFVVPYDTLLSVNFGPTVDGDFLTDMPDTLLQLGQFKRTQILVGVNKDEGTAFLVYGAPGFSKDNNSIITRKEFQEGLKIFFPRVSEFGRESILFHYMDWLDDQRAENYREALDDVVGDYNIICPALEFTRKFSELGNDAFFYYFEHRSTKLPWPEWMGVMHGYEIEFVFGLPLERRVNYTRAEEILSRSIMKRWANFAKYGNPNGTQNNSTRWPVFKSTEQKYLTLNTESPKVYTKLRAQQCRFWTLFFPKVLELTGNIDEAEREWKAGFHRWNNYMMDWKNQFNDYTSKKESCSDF
Procedure: as §1, §2

[2] = IC50 AChE, pure compounds (μM for the pure compound)
[3] = IC50 BuChE, pure compounds (μM for the pure compound)
[4] = pure compounds (μM for the pure compound)

| SMILES | IC50 of DPPH free radical scavenging activity (DPPH radical scavenging) | SI (selectivity index for AChE) [1] | SI (selectivity index for BuChE) (BuChE from equine serum) | IC50 [1, 2] | IC50 (BuChE from equine serum; [3]) | other results |
| --- | --- | --- | --- | --- | --- | --- |
| O=C1O[C@H]([C@@H](O)CO)C(O)=C1O [Ascorbic acid, reference compound] | 4.21 ± 0.13 µg/mL |  |  |  |  |  |
| O=C(O)CCCCCCCCCCCCCCCc1ccccc1 [Compound 1, 16-phenylhexadecanoic acid] |  | 0.88 | 1.14 |  |  | IC50 ([1]; pure compounds (μM for the pure compound), read-out: IC50 AChE): 46.8 ± 2.44 µM; IC50 (BuChE from equine serum; pure compounds (μM for the pure compound), read-out: IC50 BuChE): 41 ± 1.99 µM |
| CCCCCCCCCCCc1ccccc1 [Compound 2, Undecylbenzene] |  | 0.95 | 1.05 | 246.1 ± 1.4 µM | 234 ± 4.78 µM |  |
| O=C(O)c1ccc(O)c(O)c1 [Compound 3, 3,4-dihydroxybenzoic acid] | 6.56 ± 0.02 µg/mL | 0.71 | 1.41 | 327 ± 6.83 µM | 232 ± 8.37 µM |  |
| CCCCCCCCCCCCCC(=O)OCC(COC(=O)CCCCCCCCCCCCC)OC(=O)CCCCCCCCCCCCC [Compound 9, Trimyristin] |  |  |  |  |  | IC50 AChE [1, 4]: no inhibitory activities; IC50 BuChE (BuChE from equine serum; [4]): no inhibitory activities |
| CNC(=O)Oc1ccc2c(c1)[C@]1(C)CCN(C)[C@@H]1N2C [Eserine, reference compound] |  |  |  |  |  | % inhibition BuChE (BuChE from equine serum; control, tested at 0.2 μM): 44.45 ± 0.23% |
